Where two headings read alike, the source gives them in different places.
How the values were obtained:
[1] = system: COLON ADENOCARCINOMA-26/A; format: in vivo, murine; settings: Balb/C female mice
From the text: (§1) Inhibition of tumors transplanted into mice is an accepted procedure for studying the efficacy of antitumor agents (Corbett, et al., In vivo Methods for Screening and Preclinical Testing; Use of rodent solid tumors for drug discovery., In: Anticancer Drug Development Guide: Preclinical Screening, Clinical Trials, and Approval, B. Teicher (ed), Humana Press Inc., Totowa, N.J., Chapter 5, pages 75-99 (1997); (Corbett, et al., Int. J. Pharmacog., 33, Supplement, 102-122 (1995)). Murine tumors or human xenographs were implanted essentially as described by Corbett in In vivo Methods for Screening and Preclinical Testing; Use of rodent solid tumors for drug discovery. Briefly, the murine tumor or human xenograph was implanted subcutaneously using either 12-gauge trocar implants or counted number of cells. The location for the trocar insertion is midway between the axillary and inguinal region along the side of the mouse. The trocar is slipped approximately ¾ of an inch subcutaneously up toward the axilla before discharging the tumor fragment, and pinching the skin as the trocar is removed. Alternatively, human tumor cells prepared from a […] of donor tumors (5×10^6 cells) were implanted subcutaneously in a hind-leg of a male or female nude mouse (Charles River). Either a test compound in vehicle or vehicle alone was administered by intravenous bolus injection (iv), intraperitoneal injection (ip), or oral gavage (po). Each treatment group, as well as a group of untreated control animals, consisted of five animals per group in each experiment. Subcutaneous tumor response was monitored by tumor volume measurement performed twice each week over the course of the experiment (60-120 days). Body weights were taken as a general measure of toxicity. The subcutaneous tumor data were analyzed by determining the median tumor weight for each treatment group over the course of the experiment and calculating the tumor growth delay as the difference in days for the treatment versus the control tumors to reach a volume of either 500 or 1000 mm^3.
(§2) Cryptophycin-309 (309) was tested against a variety of murine and human tumors substantially as described supra. Cryptophycin-55 glycinate (55-GLY), Taxol, and Adriamycin (Adria) were also included in certain tests for purposes of comparison. Cryptophycin 55 glycinate is known in the art (WO 98/08505, Example 9) and has the following structure: [drawing 9]
(§3) Tumor Weight(mg)=(a×b^2)/2 where a=tumor length (mm) and b=tumor width (mm).
(§4) Tumor Growth Delay=T−C where T is the median time (days) required for the treatment group tumors to reach a predetermined size, and C is the median time (days) for the control group tumors to reach the same size. Tumor-free survivors are excluded from this calculation, and are tabulated separately (Tumor Free).
(§5) Log Kill=Tumor Growth Delay/(3.32)(Td)
(§6) where Tumor Growth Delay is as previously defined and Td is tumor volume doubling time (days), estimated from the best fit straight line from a log-linear growth plot of the control group of tumors in exponential growth (100-800 mg range)
(§7) %T/C mass—The treatment and control groups are measured when the control group tumors reach approximately 700 to 1200 mg in size (median group). The median tumor weight of each group is determined (including zeros). The T/C value in percent is an indication of antitumor effectiveness. A T/C≦42% is considered significant antitumor activity. A T/C<10% is considered to indicate highly significant antitumor activity.
(§8) Body Weight Loss Nadir—A body weight loss nadir (mean of group) of greater than 20% or drug deaths greater than 20% are considered to indicate an excessively toxic dosage in single course trials.
(§9) Activity Rating—the Activity Rating is derived from the Log Kill according to the following table: […]

[2] = system: MAMMARY ADENOCARCINOMA-16/C/Adr; experiment: Early stage murine mammary adenocarcinoma-16/C/Adr subcutaneous tumor assay; format: in vivo; settings: C3H female mice
From the text: as §1, §2, §3, §4, §5, §6, §7, §8, §9

[3] = system: COLON ADENOCARCINOMA 51/A; experiment: Early stage murine colon adenocarcinoma 51/A subcutaneous tumor assay; format: in vivo; settings: CDF female mice
From the text: as §1, §2, §3, §4, §5, §6, §7, §8, §9

[4] = system: MAMMARY ADENOCARCINOMA 16/C; format: in vivo, murine; settings: IV 8 mg/kg/inj QD 3-11; total dose 72 mg/kg; C3H/HeN female mice
From the text: as §1, §2, §3, §4, §5, §6, §7, §8, §9

[5] = system: PANCREATIC DUCTAL ADENOCARCINOMA #02; format: in vivo, murine; settings: IV 8 mg/kg/inj QD 1-8; total dose 64 mg/kg; BDF1 female mice; experiment #
From the text: as §1, §2, §3, §4, §5, §6, §7, §8, §9

[6] = system: HUMAN COLON ADENOCARCINOMA 15; format: in vivo; settings: IV 9.5 mg/kg/inj QD 3-11; total dose 85.5 mg/kg; Balb/C SCID female mice
From the text: as §1, §2, §3, §4, §5, §6, §7, §8, §9

HUMAN COLON ADEN[…]-116 = experiment: Early stage human colon adenocarcinoma HCT-116 xenograft assay; format: in vivo; settings: IV 9 mg/kg/inj QD 3-10; total dose 72 mg/kg; Balb/C SCID female mice
From the text: as §1, §2, §3, §4, §5, §6, §7, §8, §9

[7] = IV 6.5 mg/kg/inj days 1,5,9, total dose 19.5 mg/kg
[8] = IV 7.5 mg/kg/inj days 1 and 7, total dose 15 mg/kg
[9] = IV 6.5 mg/kg/inj days 3,6,9, total dose 19.5 mg/kg
[10] = IV 10 mg/kg/inj QD 1-7, 9, total dose 80 mg/kg
[11] = IV 10 mg/kg/inj QD 1-7, total dose 70 mg/kg
[12] = IV 10 mg/kg/inj QD 1-8, total dose 80 mg/kg

Compound: COc1cccc2c1C(=O)c1c(O)c3c(c(O)c1C2=O)C[C@@](O)(C(=O)CO)C[C@@H]3O[C@H]1C[C@H](N)[C@H](O)[C@H](C)O1 [Adriamycin]
- % T/C MASS [1, 7]: 44%
- DRUG DEATHS [1, 7]: 0/5
- LOG KILL [1, 7]: None
- MEDIAN TUMOR WEIGHT [1, 7]: 393 mg
- DRUG DEATHS [2, 8]: 0/5
- LOG KILL [2, 8]: None
- MEDIAN TUMOR WEIGHT [2, 8]: 1096 mg
- % T/C MASS [3, 9]: 0%
- ACTIVITY RATING [3, 9]: +++ (2.0-2.8)
- DRUG DEATHS [3, 9]: 0/6
- GROWTH DELAY [3, 9]: 16.6 days
- LOG KILL [3, 9]: 2.0
- MEDIAN TUMOR WEIGHT [3, 9]: 0 mg

Compound: CC(=O)O[C@H]1C(=O)[C@@]2(C)[C@H]([C@H](OC(=O)c3ccccc3)[C@]3(O)C[C@H](OC(=O)[C@H](O)[C@@H](NC(=O)c4ccccc4)c4ccccc4)C(C)=C1C3(C)C)[C@]1(OC(C)=O)CO[C@@H]1C[C@@H]2O [Taxol]
- % T/C MASS [1, 10]: 57%
- DRUG DEATHS [1, 10]: 0/5
- LOG KILL [1, 10]: None
- MEDIAN TUMOR WEIGHT [1, 10]: 516 mg
- % T/C MASS [4]: 0%
- ACTIVITY RATING [4]: ++++ (>2.8)
- DRUG DEATHS [4]: 0/5
- GROWTH DELAY [4]: 12.5 days
- LOG KILL [4]: 2.9
- MEDIAN TUMOR WEIGHT [4]: 0 mg
- % T/C MASS [5]: 79%
- DRUG DEATHS [5]: 0/5
- GROWTH DELAY [5]: 1 days
- LOG KILL [5]: 0.1
- MEDIAN TUMOR WEIGHT [5]: 1296 mg
- DRUG DEATHS [2, 11]: 0/5
- LOG KILL [2, 11]: None
- MEDIAN TUMOR WEIGHT [2, 11]: 1198 mg
- % T/C MASS [3, 12]: 25%
- ACTIVITY RATING [3, 12]: + (0.7-1.2)
- DRUG DEATHS [3, 12]: 0/6
- GROWTH DELAY [3, 12]: 5.6 days
- LOG KILL [3, 12]: 0.7
- MEDIAN TUMOR WEIGHT [3, 12]: 288 mg
- % T/C MASS [6]: 67%
- DRUG DEATHS [6]: 0/5
- GROWTH DELAY [6]: 3.5 days
- LOG KILL [6]: 0.4
- MEDIAN TUMOR WEIGHT [6]: 1044 mg
- % T/C MASS (HUMAN COLON ADEN[…]-116): 11%
- ACTIVITY RATING (HUMAN COLON ADEN[…]-116): +++ (2.0-2.8)
- DRUG DEATHS (HUMAN COLON ADEN[…]-116): 0/5
- GROWTH DELAY (HUMAN COLON ADEN[…]-116): 17 days
- LOG KILL (HUMAN COLON ADEN[…]-116): 2.0
- MEDIAN TUMOR WEIGHT (HUMAN COLON ADEN[…]-116): 126 mg

Source: patent publication US6747021B2, “Cryptophycin compound” (Eli Lilly and Company, priority 2000, dated 2004)
